Experimental data published in patent US7285567B2, “Halogenated benzamide derivatives” (Romark Laboratories, L.C., priority 2005, dated 2007).
Converted amounts (≈) assume the structure as drawn. Read-outs that look alike come from different tables or passages of the source.

Assays:
[1] = test system: H3N2 influenza virus, type A; experiment: Multiple cycle CPE inhibition assay on MDCK cell monolayers; assay type: cell-based; details: 0% EMEM + Hepes + Trypsin
Description: (§1) EC50 (μg/mL) values for 2-(acetolyloxy)-3-methyl-N-(5-bromo-2-thiazolyl)benzamide (RM4803), 2-(acetolyloxy)-3-methyl-N-(5-chloro-2-thiazolyl)benzamide (RM4804), and 2-(acetolyloxy)-3-methoxy-N-(5-bromo-2-thiazolyl)benzamide (RM4806), on Human Rhinovirus Type 39 (HRV-39), and H3N2 influenza virus, type A, using a multiple cycle CPE inhibition assay on OH-I Hela and Madin Darby Canine Kidney (MDCK) cell monolayers, respectively, were measured by microscopic and spectrophotometric methods. Pirodavir and Oseltamivir were included as positive controls.

[2] = test system: anaerobic Gram-positive non-sporeforming rods; experiment: CLSI agar dilution MIC, anaerobic clinical isolates; assay type: cell-based; details: Gram + rods (14 isolates), 48 h
[3] = test system: anaerobic Gram positive cocci; experiment: as above; assay type: cell-based; details: Gram + cocci (16 isolates), 48 h
clostridia = experiment: organism not typed; assay type: cell-based; details: 48 h
[4] = test system: anaerobic bacteria (all 142 isolates); experiment: CLSI agar dilution MIC, all anaerobic clinical isolates; assay type: cell-based; details: for MIC50 / MIC90: All (142 isolates), agar dilution, 48 h; for Activity against anaerobic bacteria groups (summary in words): summary of MIC results
Prevotella/Porphyromonas = experiment: CLSI agar dilution MIC, anaerobic clinical isolates; assay type: cell-based; details: Prev/Porphy (26 isolates), 48 h
Description: (§2) Methods. Recent clinical anaerobic isolates (2000 to date) comprised 40 B. fragilis group, 26 Prevotella/Porphyromonas, 28 fusobacteria, 16 anaerobic Gram positive cocci, 14 anaerobic Gram-positive non-sporeforming rods and 18 clostridia. CLSI agar dilution MIC methodology with enriched Brucella blood agar and inocula of 1×10^5 cfu/spot was used. Plates were incubated in an anaerobic glove box at 35° C. for 48 h. Results.

B. fragilis group = experiment: as above; assay type: cell-based; details: Bacteroides fragilis, B. fragilis gp (40 isolates), 48 h, 35° C.
Description: as §2

fusobacteria = experiment: as above; assay type: cell-based; details: Fusobacteria (28 isolates), 48 h
Description: as §2

Trichomonas vaginalis = experiment: Antiparasite test by conventional means; assay type: cell-based; details: at concentrations of at least 50 μg/mL
Description: (§3) The above identified compounds according to Formula (IV) were tested by conventional means against Trichomis vaginalis, Giardia Intestinalis, and Trypanosoma brucei.

Giardia intestinalis = experiment: Antiparasite test by conventional means; assay type: cell-based; details: at concentrations of at least 50 μg/mL
Description: as §3

Trypanosoma brucei = experiment: Antiparasite test by conventional means; assay type: cell-based; details: at concentrations of at least 50 μg/mL
Description: as §3

[5] = test system: Human Rhinovirus Type 39 (HRV-39); experiment: Multiple cycle CPE inhibition assay on OH-I Hela cell monolayers; assay type: cell-based; details: Rhinovirus A, HRV39, HRV-39, OH-Hela, 2% McCoys + Hepes Buffer
Description: as §1

[6] = test system: Paramyxovirus: Sendai virus; experiment: microbe, parasite or virus in culture; assay type: cell-based; details: Respirovirus muris; Sendai virus in cell culture (Table 2)
Cryptosporidium spp. = experiment: Efficacy against intracellular protozoa
Sarcocystis neurona = experiment: Efficacy against intracellular protozoa
Neospora spp. = experiment: Efficacy against intracellular protozoa
[7] = microscopic reading, read-out: EC50, Microscopic
[8] = spectrophotometric reading, read-out: EC50, Spectrophotometer
[9] = Clostridia (18 isolates), agar dilution, read-out: MIC50

CCOC(=O)C1=C[C@@H](OC(CC)CC)[C@H](NC(C)=O)[C@@H](N)C1 [Oseltamivir, reference compound]
EC50 [1, 7]: 0.13 to 0.17 µg/mL
EC50 [1, 8]: 0.08 to 0.36 µg/mL

CCC[C@@H]1C[C@@H](C(=O)N[C@@H]([C@H]2O[C@H](SC)[C@H](O)[C@@H](O)[C@H]2O)[C@H](C)Cl)N(C)C1 [Clindamycin]
MIC50 [2]: 0.125 µg/mL
MIC90 [2]: 4 µg/mL
MIC50 [3]: 0.125 µg/mL
MIC90 [3]: 0.5 µg/mL
MIC50 (clostridia): 1 µg/mL (≈ 2.35 µM)
MIC90 (clostridia): > 32 µg/mL
MIC50 [4]: 0.125 µg/mL (≈ 0.294 µM)
MIC90 [4]: 8 µg/mL (≈ 18.8 µM)
MIC50 (Prevotella/Porphyromonas): ≤ 0.015 µg/mL
MIC90 (Prevotella/Porphyromonas): ≤ 0.015 µg/mL
MIC50 (B. fragilis group): 2 µg/mL (≈ 4.71 µM)
MIC90 (B. fragilis group): > 32 µg/mL
MIC50 (fusobacteria): 0.06 µg/mL (≈ 0.141 µM)
MIC90 (fusobacteria): 0.125 µg/mL (≈ 0.294 µM)

CC(=O)Oc1ccccc1C(=O)Nc1ncc([N+](=O)[O-])s1 [Nitazoxanide, 2-(acetolyloxy)-N-(5-nitro-2-thiazolyl) benzamide]
MIC50 [2]: 16 µg/mL
MIC90 [2]: > 32 µg/mL
MIC50 [3]: 0.5 µg/mL
MIC90 [3]: 2 µg/mL
MIC50 (clostridia; [9]): 0.5 µg/mL (≈ 1.63 µM)
MIC50 [4]: 2 µg/mL (≈ 6.51 µM)
MIC90 [4]: 4 µg/mL (≈ 13 µM)
Activity against anaerobic bacteria groups (summary in words) [4]: potent against all anaerobic bacteria groups except for Gram-positive anaerobic rods
MIC50 (Prevotella/Porphyromonas): 4 µg/mL (≈ 13 µM)
MIC90 (Prevotella/Porphyromonas): 8 µg/mL (≈ 26 µM)
MIC50 (B. fragilis group): 2 µg/mL (≈ 6.51 µM)
MIC90 (B. fragilis group): 4 µg/mL (≈ 13 µM)
MIC50 (fusobacteria): 1 µg/mL (≈ 3.25 µM)

COc1cccc(C(=O)Nc2ncc(Br)s2)c1OC(C)=O [RM-4806, 2-(acetolyloxy)-3-methoxy-N-(5-bromo-2-thiazolyl)benzamide]
EC50 [1, 7]: 0.46 µg/mL
EC50 [1, 8]: 0.57 µg/mL
antiparasite activity (Trichomonas vaginalis): failed to exhibit antiparasite activitity
antiparasite activity (Giardia intestinalis): failed to exhibit antiparasite activitity
antiparasite activity (Trypanosoma brucei): failed to exhibit antiparasite activitity
EC50 [5, 7]: 5 µg/mL
EC50 [5, 8]: 4 µg/mL

Cc1ncc([N+](=O)[O-])n1CCO [Metronidazole]
MIC50 [2]: > 16 µg/mL
MIC90 [2]: > 16 µg/mL
MIC50 [3]: 0.5 µg/mL
MIC90 [3]: 1 µg/mL
MIC50 [4]: 1 µg/mL (≈ 5.84 µM)
MIC90 [4]: 2 µg/mL (≈ 11.7 µM)
MIC50 (Prevotella/Porphyromonas): 0.5 µg/mL (≈ 2.92 µM)
MIC50 (B. fragilis group): 1 µg/mL (≈ 5.84 µM)
MIC90 (B. fragilis group): 2 µg/mL (≈ 11.7 µM)
MIC50 (fusobacteria): 0.25 µg/mL (≈ 1.46 µM)
MIC90 (fusobacteria): 0.25 µg/mL (≈ 1.46 µM)

CC(=O)Oc1ccccc1C(=O)Nc1ncc(Br)s1 [RM-4820, 2-(acetolyloxy)-N-(5-bromo-2-thiazolyl)benzamide]
EC50 [6]: 340 nM
efficacy against intracellular protozoa (Cryptosporidium spp.): effective
efficacy against intracellular protozoa (Sarcocystis neurona): effective
efficacy against intracellular protozoa (Neospora spp.): effective

CCOC(=O)c1ccc(OCCC2CCN(c3ccc(C)nn3)CC2)cc1 [Pirodavir, reference compound]
EC50 [5, 7]: 0.007 µg/mL
EC50 [5, 8]: 0.004 µg/mL

CC(=O)Oc1ccc(C)cc1C(=O)Nc1ncc(Br)s1 [RM-4821]
EC50 [6]: 360 nM
efficacy against intracellular protozoa (Cryptosporidium spp.): effective
efficacy against intracellular protozoa (Sarcocystis neurona): effective
efficacy against intracellular protozoa (Neospora spp.): effective

O=C(Nc1ncc([N+](=O)[O-])s1)c1ccccc1O [Tizoxanide]
MIC50 [2]: 8 µg/mL
MIC90 [2]: > 32 µg/mL
MIC50 [3]: 0.5 µg/mL
MIC90 [3]: 1 µg/mL
MIC50 (clostridia; [9]): 0.25 µg/mL (≈ 0.943 µM)
MIC50 [4]: 2 µg/mL (≈ 7.54 µM)
MIC90 [4]: 4 µg/mL (≈ 15.1 µM)
Activity against anaerobic bacteria groups (summary in words) [4]: potent against all anaerobic bacteria groups except for Gram-positive anaerobic rods
MIC90 (Prevotella/Porphyromonas): 16 µg/mL (≈ 60.3 µM)
MIC50 (B. fragilis group): 2 µg/mL (≈ 7.54 µM)
MIC90 (B. fragilis group): 4 µg/mL (≈ 15.1 µM)
MIC50 (fusobacteria): 0.5 µg/mL (≈ 1.89 µM)
MIC90 (fusobacteria): 2 µg/mL (≈ 7.54 µM)

CC(=O)Oc1c(C)cccc1C(=O)Nc1ncc(Cl)s1 [RM-4804, 2-(acetolyloxy)-3-methyl-N-(5-chloro-2-thiazolyl)benzamide]
EC50 [1, 7]: 0.93 µg/mL
EC50 [1, 8]: 0.57 µg/mL
antiparasite activity (Trichomonas vaginalis): failed to exhibit antiparasite activitity
antiparasite activity (Giardia intestinalis): failed to exhibit antiparasite activitity
antiparasite activity (Trypanosoma brucei): failed to exhibit antiparasite activitity
EC50 [5, 7]: 0.57 µg/mL
EC50 [5, 8]: 0.32 µg/mL

CC(=O)Oc1cc(C)ccc1C(=O)Nc1ncc(Br)s1 [RM-4822]
EC50 [6]: 360 nM
efficacy against intracellular protozoa (Cryptosporidium spp.): effective
efficacy against intracellular protozoa (Sarcocystis neurona): effective
efficacy against intracellular protozoa (Neospora spp.): effective
